# Experimental data published in US10927096B2, “Ester substituted ion channel blockers and methods for use” (Nocion Therapeutics, Inc., priority 2019, dated 2021).
# What was measured:
# [1] = PAMPA membrane permeability assay; format: physicochemical; conditions: pH 7.4 buffer, GIT lipid, 4 hours incubation
# Procedure: The PAMPA assay (pION, Inc., Woburn Mass.) was used to determine the ability of compounds of the invention to cross an artificial lipid membrane by passive diffusion. Test compounds were dissolved in DMSO (10 mM) and diluted 200-fold in buffer (pION Inc., pH 7.4) to provide 50 uM stock solutions. Buffer (150 μL) was added to a UV blank plate and stock solutions (150 μL) were transferred to a UV reference plate. The blank and reference spectrum were read using a spectrophotometer. Stock solutions (200 μL) were added to the donor plate of the PAMPA sandwich plate and an accept plate painted with GIT lipid (pION Inc, 5 μL) was placed on top. Buffer (200 μL) was added to the acceptor plate and the PAMPA sandwich plate was incubated for 4 hours. Aliquots (150 μL) from the acceptor plate were added to a UV plate and read as acceptor spectrum. Aliquots (150 μL) of the donor solutions were added to a UV analysis plate and read as donor spectrum. The permeability coefficient of test compounds was calculated using PAMPA Explorer™ software (version 3.5.0.4) based on the AUC of the reference plate, the donor plate, and the acceptor plate.
# The PAMPA permeability results (10^−6 cm/s) of representative compounds are reported as “+” (<0.1 10^−6 cm/s), “++” (0.1-2.0 10^−6 cm/s), “+++” (2.0-10.010^−6 cm/s) or “++++” (>10.0 10^−6 cm/s).
# NaV1.7 [2] = target: T1, NaV1.7 (Homo sapiens, UniProt Q15858); assay: Automated patch clamp (Qube 384), internal block of NaV1.7 in HEK293 cells; format: cell-based; conditions: compound in internal solution, read-out: NaV1.7 Intracellular Inhibition
# T1 construct: expressed in transfected cells; host or cells: HEK293, tetracycline-inducible
# T1 sequence (Q15858 whole entry): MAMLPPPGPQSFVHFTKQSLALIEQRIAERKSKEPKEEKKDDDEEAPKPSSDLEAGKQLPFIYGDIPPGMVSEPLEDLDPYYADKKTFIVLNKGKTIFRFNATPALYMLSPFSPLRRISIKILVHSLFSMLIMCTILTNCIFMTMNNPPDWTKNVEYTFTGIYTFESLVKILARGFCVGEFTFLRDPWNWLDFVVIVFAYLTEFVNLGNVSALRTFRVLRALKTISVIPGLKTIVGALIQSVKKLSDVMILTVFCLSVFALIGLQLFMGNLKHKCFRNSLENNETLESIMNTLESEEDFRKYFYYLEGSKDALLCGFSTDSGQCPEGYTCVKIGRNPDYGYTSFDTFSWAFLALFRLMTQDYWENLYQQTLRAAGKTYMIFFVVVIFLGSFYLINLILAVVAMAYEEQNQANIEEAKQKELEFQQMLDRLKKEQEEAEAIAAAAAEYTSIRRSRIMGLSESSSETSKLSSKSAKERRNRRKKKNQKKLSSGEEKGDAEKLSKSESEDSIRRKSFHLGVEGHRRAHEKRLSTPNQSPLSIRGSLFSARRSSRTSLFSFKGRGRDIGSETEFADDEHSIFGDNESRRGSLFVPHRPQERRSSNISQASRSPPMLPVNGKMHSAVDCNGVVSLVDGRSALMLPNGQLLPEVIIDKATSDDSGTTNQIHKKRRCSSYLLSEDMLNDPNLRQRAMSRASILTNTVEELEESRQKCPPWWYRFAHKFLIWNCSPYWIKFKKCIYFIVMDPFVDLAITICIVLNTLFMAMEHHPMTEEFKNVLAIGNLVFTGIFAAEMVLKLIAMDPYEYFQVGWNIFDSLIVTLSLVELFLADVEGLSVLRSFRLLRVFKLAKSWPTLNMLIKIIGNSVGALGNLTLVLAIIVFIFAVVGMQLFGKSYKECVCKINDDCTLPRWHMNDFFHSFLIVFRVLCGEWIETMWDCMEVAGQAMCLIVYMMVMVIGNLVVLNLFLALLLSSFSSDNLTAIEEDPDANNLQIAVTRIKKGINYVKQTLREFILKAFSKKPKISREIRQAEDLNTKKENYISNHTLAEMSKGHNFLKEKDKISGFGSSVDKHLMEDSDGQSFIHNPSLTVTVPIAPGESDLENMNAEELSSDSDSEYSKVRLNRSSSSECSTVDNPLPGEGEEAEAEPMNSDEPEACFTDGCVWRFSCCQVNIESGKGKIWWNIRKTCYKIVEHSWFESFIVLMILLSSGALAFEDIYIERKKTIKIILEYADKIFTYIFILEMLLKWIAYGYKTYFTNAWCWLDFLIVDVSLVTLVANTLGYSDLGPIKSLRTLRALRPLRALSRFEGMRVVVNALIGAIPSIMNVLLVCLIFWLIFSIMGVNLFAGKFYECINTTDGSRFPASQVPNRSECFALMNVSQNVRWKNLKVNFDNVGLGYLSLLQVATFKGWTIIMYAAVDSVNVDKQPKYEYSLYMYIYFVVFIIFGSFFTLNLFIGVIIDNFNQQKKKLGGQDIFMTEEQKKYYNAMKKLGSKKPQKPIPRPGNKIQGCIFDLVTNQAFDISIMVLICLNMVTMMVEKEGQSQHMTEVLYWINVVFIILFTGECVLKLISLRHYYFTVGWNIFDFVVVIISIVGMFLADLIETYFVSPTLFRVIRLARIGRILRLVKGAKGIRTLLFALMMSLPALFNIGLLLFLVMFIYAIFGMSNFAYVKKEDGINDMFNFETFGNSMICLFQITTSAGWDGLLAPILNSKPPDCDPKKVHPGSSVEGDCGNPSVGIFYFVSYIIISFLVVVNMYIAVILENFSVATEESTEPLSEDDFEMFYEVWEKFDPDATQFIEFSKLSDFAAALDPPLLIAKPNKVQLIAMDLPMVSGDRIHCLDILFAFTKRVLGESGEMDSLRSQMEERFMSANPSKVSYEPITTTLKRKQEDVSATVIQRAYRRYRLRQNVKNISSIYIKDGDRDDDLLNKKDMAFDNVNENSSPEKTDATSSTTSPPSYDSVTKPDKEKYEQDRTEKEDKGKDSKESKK
# Procedure: (§1) NaV1.7 was expressed in HEK293 cells upon induction with tetracycline. Cells were cultured in DMEM containing 10% dialyzed Fetal Bovine Serum (VWR, Radnor, Pa.), 1% Glutamax (VWR, Radnor, Pa.), 1% Penicillin-Streptomycin (VWR, Radnor, Pa.), 100 mg/L Hygromycin (Thermo Fisher Scientific, Waltham, Mass. and 5 mg/L Blasticidin (Alfa Aesar, Haverhill, Mass.). Cells were grown and maintained at 37° C. in a humidified environment containing 10% CO2 in air. Cells were detached from the culture flask for passage and harvested using 0.05% Trypsin-EDTA (Thermo Fisher Scientific, Waltham, Mass.). To induce NaV1.7, cells were induced with tetracycline (0.1-1 μg/mL, IBI Scientific, Peosta, Iowa) the day before recording.
# (§2) Before experiments, cells were washed with DPBS (VWR, Radnor, Pa.), digested with Detachin (VWR Radnor, Pa.) and then triturated 10 times in CHO Serum-Free Media (VWR Radnor, Pa.) to resuspend the cells and to break apart cell aggregates. Cells were counted and the final concentration was set at 2-5 million cells per mL.
# (§3) The intracellular solution contained the following: 140 mM CsF, 1 mM/5 mM EGTA/CsOH, 10 mM HEPES, 10 mM NaCl, adjusted to pH 7.3 with CsOH, and osmolality to 320 with sucrose. The external solution contained the following: 145 mM NaCl, 4 mM KCl, 1 mM MgCl2, 2 mM CaCl2, 10 mM HEPES, 10 mM Glucose, adjusted to pH 7.4 with CsOH and osmolality to 305 with sucrose. All chemicals are from Sigma-Aldrich, St. Louis, Mo. In order to test the degree of internal block by test compounds, the compounds were dissolved in internal solution at the indicated test concentration. […] In order to test the degree of external block by test compounds the compounds were dissolved in external solution at the indicated test concentration.
# (§4) Automated Patch Clamps were performed on Qube 384 (Sophion Bioscience, Woburn Mass.) with multihole Qchips at a temperature setting of 22 degrees. The whole cells configuration was formed with default Qube seal and break-in parameter. The membrane potential was held at −100 mV before the voltage protocol began. Two voltage protocols were followed.
# (§5) Step 1: Cells were held at −100 mV with a depolarized pulse to −20 mV for 10 ms, the interval was set at 5 s. Currents were corrected by default leak subtraction from every pulse. The duration was set at 5 mins.
# (§6) Step 2: Cells were held at −100 mV with a depolarized pulse to −20 mV for 10 ms. The frequency was 5 Hz. Currents were corrected by leak subtraction calculated before step 2. The duration was set at 4 mins.
# After Step 2, the Qchip was removed from the recording chamber. The internal solution was changed with solutions containing test compounds. Qchips were held at −100 mV without pulsing after being replaced in the recording chamber. The total solution switching time was 8 minutes. After the internal solution exchange, Cells were recorded and step 2 for repeated for 10 minutes.
# Data analysis was performed by Sophion Analyzer. Cells were filtered with minimum 50 MOhm seal resistance and minimum 5 nA starting current. The rundown of the currents was corrected with control cells (Non-Drug). The remaining was calculated by averaging last 3 points in the end of experiments. The base line was calculated as the average of last 3 points of Step 2. IC50 curves were plotted with DR-plots/Hill function (a dose-response plot with a Hill fit).
# Representative examples of the invention were tested for intracellular inhibition of NaV 1.7 in the automated patch clamp assay. Activity Range is reported as IC50: “++++” (<1 μM), “+++” (1-3 μM), “++” (3-10 μM) or “+” (10-30 μM).
# NaV1.7 [3] = target: T1, NaV1.7; assay: Automated patch clamp (Qube 384), external block of NaV1.7 in HEK293 cells; format: cell-based; conditions: compound in external solution, read-out: NaV1.7 Extracellular Inhibition
# Procedure: as §1, §2, §3, §4, §5, §6
# After Step 2, the external solution was changed with solutions containing test compounds. Qchips were held at −100 mV without pulsing. The total solution switching time was 8 minutes. After the external solution exchange, cells were recorded using the same procedure as step 2 for 10 minutes.
# Data analysis was performed by Sophion Analyzer. Data were corrected with control cells (Non-Drug). The IC50 data were plotted with DR-plots/Hill function (a dose-response plot with a Hill fit).
# Representative examples of the invention were tested for extracellular inhibition of NaV 1.7 in the automated patch clamp assay. Activity Range is reported as IC50: “++++” (<1 μM), “+++” (1-10 μM), “++” (10-30 μM) or “+” (>30 μM).
SMILES,PAMPA (10^−6 cm/s) [1],IC50 (NaV1.7 [2]),IC50 (NaV1.7 [3])
COC(=O)c1cccc(C)c1NC(=O)C[N+]1(Cc2ccccc2)CCCC(C(=O)NC2CCCC2)C1.[Br-] (stereo not shown) [Compound 41],+ (<0.1 10^−6 cm/s),1 to 3 µM,
Cc1cccc(C(=O)OC(C)(C)C)c1NC(=O)C[n+]1cccc(-c2ccccc2)c1.[Br-] [Compound 71],+ (<0.1 10^−6 cm/s),1 to 3 µM,1 to 10 µM
COC(=O)c1cccc(C)c1NC(=O)C[N+]1(Cc2ccccc2)CCCC(C(=O)NC(C)C)C1.[Br-] (stereo not shown) [Compound 32],+ (<0.1 10^−6 cm/s),< 1 µM,> 30 µM
CCOC(=O)C1CCC[N+](CC(=O)Nc2c(C)cccc2C(=O)OC)(Cc2ccccc2)C1 (mixture of isomers) [Compound 16],+ (<0.1 10^−6 cm/s),< 1 µM,1 to 10 µM
CC[N+]1(CC(=O)Nc2c(C)cccc2C(=O)OC)CCCC(C(=O)N2CCCC2)C1 (mixture of isomers) [Compound 54],+ (<0.1 10^−6 cm/s),1 to 3 µM,
COC(=O)c1cccc(C)c1NC(=O)C[N+]1(Cc2ccccc2)CCCCC1.[Br-] [Compound 3],+ (<0.1 10^−6 cm/s),1 to 3 µM,> 30 µM
CCNC(=O)C1CCC[N+](CC(=O)Nc2c(C)cccc2C(=O)OC)(Cc2ccccc2)C1.O=C([O-])C(F)(F)F (stereo not shown) [Compound 33],++ (0.1-2.0 10^−6 cm/s),< 1 µM,
CCCOC(=O)c1cccc(C)c1NC(=O)C[N+]1(Cc2ccccc2)CCCCCC1.[Br-] [Compound 6],+ (<0.1 10^−6 cm/s),1 to 3 µM,
CCCCOC(=O)C1CCC[N+](CC(=O)Nc2c(C)cccc2C(=O)OC)(Cc2ccccc2)C1.[Br-] (mixture of isomers) [Compound 14],+ (<0.1 10^−6 cm/s),1 to 3 µM,
COC(=O)c1cccc(C)c1NC(=O)C[N+]1(Cc2ccccc2)CCCC(C(N)=O)C1.[Br-] (stereo not shown) [Compound 30],+ (<0.1 10^−6 cm/s),< 1 µM,> 30 µM
CC[N+]1(CC(=O)Nc2c(C)cccc2C(=O)OC)CCCC(C(=O)N2CCCCC2)C1.[I-] (stereo not shown) [Compound 45],+ (<0.1 10^−6 cm/s),< 1 µM,> 30 µM
COC(=O)c1cccc(C)c1NC(=O)C[N+]1(Cc2ccccc2)CCCC(C(=O)N2CCCCCC2)C1.[Br-] (stereo not shown) [Compound 34],+ (<0.1 10^−6 cm/s),1 to 3 µM,
CCCCOC(=O)C1CCC[N+](CC)(CC(=O)Nc2c(C)cccc2C(=O)OC)C1.[I-] (mixture of isomers) [Compound 15],+ (<0.1 10^−6 cm/s),1 to 3 µM,
COC(=O)C[N+]1(CC(=O)Nc2c(C)cccc2C(=O)OC)CCCC(c2ccccc2)C1 (mixture of isomers) [Compound 64],+ (<0.1 10^−6 cm/s),< 1 µM,
CC[N+]1(CC(=O)Nc2c(C)cccc2C(=O)OC)CCCC(C(=O)NC)C1.[I-] (stereo not shown) [Compound 46],+ (<0.1 10^−6 cm/s),3 to 10 µM,
COC(=O)c1cccc(C)c1NC(=O)C[N+]1(Cc2ccccc2)CCCC(C(=O)N2CCCC2)C1 (mixture of isomers) [Compound 43],+ (<0.1 10^−6 cm/s),1 to 3 µM,
COC(=O)c1cccc(C)c1NC(=O)C[N+]1(Cc2ccccc2)CCCC(C(=O)N(C)C)C1 (mixture of isomers) [Compound 40],+ (<0.1 10^−6 cm/s),< 1 µM,
CC[N+]1(CC(=O)Nc2c(C)cccc2C(=O)OC)CCCC(C(=O)OC2CCCCC2)C1 (mixture of isomers) [Compound 27],+ (<0.1 10^−6 cm/s),1 to 3 µM,
CCc1cccc(C[N+]2(C(CC)C(=O)Nc3c(C)cccc3C(=O)OC)CCCCC2)c1.O=C[O-] (stereo not shown) [Compound 58],+ (<0.1 10^−6 cm/s),3 to 10 µM,
CCOC(=O)c1cccc(C)c1NC(=O)C[n+]1cccc(-c2ccccc2)c1 [Compound 67],+++ (2.0-10.010^−6 cm/s),< 1 µM,
COC(=O)c1cccc(C)c1NC(=O)C[N+]1(CC(N)=O)CCCC(c2ccccc2)C1 (mixture of isomers) [Compound 61],+ (<0.1 10^−6 cm/s),< 1 µM,
COC(=O)c1cccc(C)c1NC(=O)C[N+]1(CC(=O)N(C)C)CCCC(c2ccccc2)C1.O=C([O-])C(F)(F)F (stereo not shown) [Compound 60],+ (<0.1 10^−6 cm/s),< 1 µM,
CNC(=O)C[N+]1(CC(=O)Nc2c(C)cccc2C(=O)OC)CCCC(c2ccccc2)C1.[Br-] (mixture of isomers) [Compound 59],+ (<0.1 10^−6 cm/s),< 1 µM,
CCCOC(=O)C1CCC[N+](CC)(CC(=O)Nc2c(C)cccc2C(=O)OC)C1.[I-] (stereo not shown) [Compound 26],+ (<0.1 10^−6 cm/s),1 to 3 µM,
CC[N+]1(CC(=O)Nc2c(C)cccc2C(=O)OC)CCCC(C(=O)NC2CCCCC2)C1.[I-] (stereo not shown) [Compound 56],+ (<0.1 10^−6 cm/s),1 to 3 µM,
CCN(CC)C(=O)C[N+]1(CC(=O)Nc2c(C)cccc2C(=O)OC)CCCC(c2ccccc2)C1 (mixture of isomers) [Compound 62],+ (<0.1 10^−6 cm/s),1 to 3 µM,
